Numbers after ± are expanded uncertainties.
Details: Liquid, Drop weight

O=C=O [carbon dioxide] + O
interfacial tension [mN/m]
Details | 8380 kPa | 10440 kPa | 13890 kPa | 17340 kPa | 20790 kPa
298.15 K | 25.65 ± 0.42 | 25.15 ± 0.28 | 24.85 ± 0.29 | 24.9 ± 0.3 | 25 ± 1
313.15 K | 22.23 ± 0.58 | 22.16 ± 0.6 | 23.33 ± 0.46 | 23.41 ± 0.46 | 25.07 ± 0.53
323.15 K | – | 23.05 ± 0.57 | 22.74 ± 0.68 | 24.27 ± 0.78 | 23.5 ± 0.4
333.15 K | – | – | 23.36 ± 0.51 | 23.58 ± 0.69 | 22.8 ± 0.6

Source: the NIST ThermoML archive (doi:10.1021/je200302h)
